Test results taken from patent US9587005B2 (priority 2010, dated 2017).
Read-outs that look alike come from different tables or passages of the source. *1 amine or outer side, *2 acyl side, *3 side chain or, on linkers, in order; H or OH if unused. Where a SMILES comes first, the peptide text is derived from it. Bridges are numbered along the chain shown (N, C = ends). Where no end group is shown, it is not given here. Side-chain parts run from the residue outwards. [ ]: non-standard residue; d: D form. The star is where a group is joined. Phe(4-NH2) = Nc1ccc(C[C@H](N)C(=O)O)cc1; γGlu = O=C(O)[C@H](CCC(=O)[*:2])N[*:1]; Palmitoyl = CCCCCCCCCCCCCCCC(=O)*; Aib = CC(C)(N)C(=O)O

Legend:
Format in all cases: cell-based
GIP receptor = target: T1, GIP receptor (Homo sapiens, UniProt P48546); test: cAMP induction, firefly luciferase reporter assay in HEK293 cells co-transfected with GIP receptor
T1 sequence (P48546 22-466): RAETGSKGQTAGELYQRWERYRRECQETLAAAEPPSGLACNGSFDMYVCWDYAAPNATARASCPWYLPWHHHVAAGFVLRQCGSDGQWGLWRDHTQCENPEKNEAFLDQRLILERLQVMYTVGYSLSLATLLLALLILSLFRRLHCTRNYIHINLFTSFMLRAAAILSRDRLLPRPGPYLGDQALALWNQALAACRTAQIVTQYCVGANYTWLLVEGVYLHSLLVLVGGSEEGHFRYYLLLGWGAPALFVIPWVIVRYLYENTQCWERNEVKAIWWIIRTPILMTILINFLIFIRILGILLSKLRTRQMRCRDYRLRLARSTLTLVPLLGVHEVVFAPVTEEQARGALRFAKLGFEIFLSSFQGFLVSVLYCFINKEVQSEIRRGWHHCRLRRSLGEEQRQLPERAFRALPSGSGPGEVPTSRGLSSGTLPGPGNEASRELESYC

GLP-1 receptor = target: T2, GLP-1 receptor (Homo sapiens, UniProt P43220); test: cAMP induction, firefly luciferase reporter assay in HEK293 cells co-transfected with GLP-1 receptor
T2 construct: expressed in transfected cells; host or cells: HEK293
T2 sequence (P43220 24-463): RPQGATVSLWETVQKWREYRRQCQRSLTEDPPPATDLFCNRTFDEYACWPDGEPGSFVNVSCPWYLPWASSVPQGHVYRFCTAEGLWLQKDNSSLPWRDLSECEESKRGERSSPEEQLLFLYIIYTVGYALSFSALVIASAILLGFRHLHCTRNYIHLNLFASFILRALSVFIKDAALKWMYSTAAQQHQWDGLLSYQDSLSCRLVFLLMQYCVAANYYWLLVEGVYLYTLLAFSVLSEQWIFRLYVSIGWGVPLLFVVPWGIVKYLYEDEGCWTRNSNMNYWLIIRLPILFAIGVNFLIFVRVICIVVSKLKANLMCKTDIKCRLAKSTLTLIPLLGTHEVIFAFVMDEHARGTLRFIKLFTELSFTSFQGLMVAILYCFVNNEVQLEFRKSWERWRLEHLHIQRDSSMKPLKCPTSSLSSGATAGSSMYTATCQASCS
Text: (§1) This example describes an exemplary method of testing the biological activity of the peptides of the present disclosures, which method involves assaying cAMP synthesis.

glucagon receptor = target: T3, glucagon receptor (Homo sapiens, UniProt P47871); test: cAMP induction, firefly luciferase reporter assay in HEK293 cells co-transfected with glucagon receptor
T3 construct: expressed in transfected cells; host or cells: HEK293
T3 sequence (P47871 26-477): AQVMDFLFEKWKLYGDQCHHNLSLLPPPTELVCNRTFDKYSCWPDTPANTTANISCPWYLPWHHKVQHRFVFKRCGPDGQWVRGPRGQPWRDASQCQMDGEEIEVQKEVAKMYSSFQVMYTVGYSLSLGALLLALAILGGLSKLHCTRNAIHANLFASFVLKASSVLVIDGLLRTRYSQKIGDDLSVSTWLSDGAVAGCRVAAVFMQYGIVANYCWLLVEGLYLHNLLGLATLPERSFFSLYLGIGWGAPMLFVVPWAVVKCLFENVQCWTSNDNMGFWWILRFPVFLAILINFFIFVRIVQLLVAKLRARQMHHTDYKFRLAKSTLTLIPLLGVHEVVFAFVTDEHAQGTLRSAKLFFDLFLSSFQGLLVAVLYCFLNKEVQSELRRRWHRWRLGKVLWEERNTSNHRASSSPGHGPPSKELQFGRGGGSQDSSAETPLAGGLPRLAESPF
Text: as §1

[1] = Table 3, relative to the activity of the native hormone

“Example 8 peptide: Tyr1, AIB2, Glu16/Lys20 lactam, Leu-Ala-Gly 27-29, GPSSGAPPPS 30-39, or a peptide lacking a lactam [mt-227] (Y[Aib]QGTFTSDYSIYLDEQAAKEFVNWLLAGGPSSGAPPPSK([Arg-Cys(PEG 40 kDa)-Ac]); lactam 16-20; not fully specified (C-terminus))” showed a GIPR relative activity (GIP receptor; [1]) of 1.29%, a GLP-1R relative activity (GLP-1 receptor; [1]) of 36.25% and a GR relative activity (glucagon receptor; [1]) of 1.27%.

Compound `CCCCCCCCCCCCCCCC(=O)N[C@@H](CCC(=O)NCCCCCCCCCCCC(=O)NCCCC[C@H](NC(=O)[C@H](CC(=O)O)NC(=O)[C@H](CO)NC(=O)[C@@H](NC(=O)[C@H](Cc1ccccc1)NC(=O)[C@@H](NC(=O)CNC(=O)[C@H](CCC(N)=O)NC(=O)C(C)(C)NC(=O)[C@@H](N)Cc1c[nH]cn1)[C@@H](C)O)[C@@H](C)O)C(=O)N[C@@H](CO)C(=O)N[C@@H](CCCCN)C(=O)N[C@@H](Cc1ccc(O)cc1)C(=O)N[C@@H](CC(C)C)C(=O)N[C@@H](CC(=O)O)C(=O)N[C@@H](CCC(=O)O)C(=O)N[C@@H](CCCNC(=N)N)C(=O)N[C@@H](C)C(=O)N[C@@H](C)C(=O)N[C@@H](CCC(N)=O)C(=O)N[C@@H](CC(=O)O)C(=O)N[C@@H](Cc1ccccc1)C(=O)N[C@H](C(=O)N[C@@H](CCC(N)=O)C(=O)N[C@@H](Cc1c[nH]c2ccccc12)C(=O)N[C@@H](CC(C)C)C(=O)N[C@@H](CC(C)C)C(=O)N[C@@H](CC(=O)O)C(=O)NCC(=O)NCC(=O)N1CCC[C@H]1C(=O)N[C@@H](CO)C(=O)N[C@@H](CO)C(=O)NCC(=O)N[C@@H](C)C(=O)N1CCC[C@H]1C(=O)N1CCC[C@H]1C(=O)N1CCC[C@H]1C(=O)N[C@@H](CO)C(N)=O)C(C)C)C(=O)O` [SEQ ID NO: 162] has an EC50 (GIP receptor; EC50 (cAMP, nmole) GIPR, Table 12, Example 19) of 0.033 nM, an EC50 (GLP-1 receptor; EC50 (cAMP, nmole) GLPR, Table 12, Example 19) of 0.003 nM and an EC50 (glucagon receptor) of 0.008 nM.

`CCCCCCCCCCCCCCCC(=O)N[C@@H](CCC(=O)NCCCC[C@H](NC(=O)[C@H](CC(=O)O)NC(=O)[C@H](CO)NC(=O)[C@@H](NC(=O)[C@H](Cc1ccccc1)NC(=O)[C@@H](NC(=O)CNC(=O)[C@H](CCC(N)=O)NC(=O)C(C)(C)NC(=O)[C@@H](N)Cc1c[nH]cn1)[C@@H](C)O)[C@@H](C)O)C(=O)N[C@@H](CO)C(=O)N[C@@H](CCCCN)C(=O)N[C@@H](Cc1ccc(O)cc1)C(=O)N[C@@H](CC(C)C)C(=O)N[C@@H](CC(=O)O)C(=O)N[C@@H](CCC(=O)O)C(=O)N[C@@H](CCCNC(=N)N)C(=O)N[C@@H](CCCNC(=N)N)C(=O)N[C@@H](C)C(=O)NC(C)(C)C(=O)N[C@@H](CCC(=O)O)C(=O)N[C@@H](Cc1ccccc1)C(=O)N[C@H](C(=O)N[C@@H](CCC(N)=O)C(=O)N[C@@H](Cc1c[nH]c2ccccc12)C(=O)N[C@@H](CC(C)C)C(=O)N[C@@H](CC(C)C)C(=O)N[C@@H](CC(=O)O)C(=O)NCC(=O)NCC(=O)N1CCC[C@H]1C(=O)N[C@@H](CO)C(=O)N[C@@H](CO)C(=O)NCC(=O)N[C@@H](C)C(=O)N1CCC[C@H]1C(=O)N1CCC[C@H]1C(=O)N1CCC[C@H]1C(=O)N[C@@H](CO)C(N)=O)C(C)C)C(=O)O` [compound 37] (H-H[Aib]QGTFTSDK([γGlu-Palmitoyl])SKYLDERRA[Aib]EFVQWLLDGGPSSGAPPPS-NH2; N-terminus assumed) gave an EC50 (GIP receptor; EC50 (nM) at GIP Receptor, Table 4, Example 9, composite of multiple different activity assays) of 0.002 nM, an EC50 (GLP-1 receptor; EC50 (nM) at GLP-1 Receptor, Table 4, Example 9, composite of multiple different activity assays) of 0.006 nM and an EC50 (glucagon receptor; EC50 (nM) at Glucagon Receptor, Table 4, Example 9, composite of multiple different activity assays) of 0.004 nM.

Work on “H[Aib]QGTFTSDYSKYLDERAAQDFVQWLLDGGPSSGAPPPS[Phe(4-NH2)]([γGlu-γGlu-Palmitoyl])G-NH2 [SEQ ID NO: 145]” yielded an EC50 (GIP receptor) of 0.017 nM, an EC50 (GLP-1 receptor) of 0.002 nM and an EC50 (glucagon receptor) of 0.002 nM.

Work on `CCCCCCCCCCCCCCCC(=O)N[C@@H](CCC(=O)N[C@@H](CCC(=O)NCCCC[C@H](NC(=O)[C@H](CC(=O)O)NC(=O)[C@H](CO)NC(=O)[C@@H](NC(=O)[C@H](Cc1ccccc1)NC(=O)[C@@H](NC(=O)CNC(=O)[C@H](CCC(N)=O)NC(=O)C(C)(C)NC(=O)[C@@H](N)Cc1ccc(O)cc1)[C@@H](C)O)[C@@H](C)O)C(=O)N[C@@H](CO)C(=O)N[C@H](C(=O)N[C@@H](Cc1ccc(O)cc1)C(=O)N[C@@H](CC(C)C)C(=O)N[C@@H](CC(=O)O)C(=O)N[C@@H](CCCCN)C(=O)N[C@@H](CCC(N)=O)C(=O)N[C@@H](C)C(=O)N[C@@H](C)C(=O)NC(C)(C)C(=O)N[C@@H](CCC(=O)O)C(=O)N[C@@H](Cc1ccccc1)C(=O)N[C@H](C(=O)N[C@@H](CC(N)=O)C(=O)N[C@@H](Cc1c[nH]c2ccccc12)C(=O)N[C@@H](CC(C)C)C(=O)N[C@@H](CC(C)C)C(=O)N[C@@H](CC(=O)O)C(=O)NCC(=O)NCC(=O)N1CCC[C@H]1C(=O)N[C@@H](CO)C(=O)N[C@@H](CO)C(=O)NCC(=O)N[C@@H](C)C(=O)N1CCC[C@H]1C(=O)N1CCC[C@H]1C(=O)N1CCC[C@H]1C(=O)N[C@@H](CO)C(N)=O)C(C)C)[C@@H](C)CC)C(=O)O)C(=O)O` [compound 91] (H-Y[Aib]QGTFTSDK([γGlu-γGlu-Palmitoyl])SIYLDKQAA[Aib]EFVNWLLDGGPSSGAPPPS-NH2; N-terminus assumed) yielded an EC50 (GIP receptor; EC50 (nM) at GIP Receptor, Table 7, Example 13) of 0.005 nM, an EC50 (GLP-1 receptor; EC50 (nM) at GLP-1 Receptor, Table 7, Example 13) of 0.008 nM and an EC50 (glucagon receptor; EC50 (nM) at Glucagon Receptor, Table 7, Example 13) of 0.073 nM.

`CCCCCCCCCCCCCCCC(=O)N[C@@H](CCC(=O)NCCCC[C@H](NC(=O)CC[C@H](NC(=O)CCCCCCCCCCCCCCC)C(=O)O)C(=O)NCCCC[C@H](NC(=O)[C@H](CC(=O)O)NC(=O)[C@H](CO)NC(=O)[C@@H](NC(=O)[C@H](Cc1ccccc1)NC(=O)[C@@H](NC(=O)CNC(=O)[C@H](CCC(N)=O)NC(=O)C(C)(C)NC(=O)[C@@H](N)Cc1c[nH]cn1)[C@@H](C)O)[C@@H](C)O)C(=O)N[C@@H](CO)C(=O)N[C@@H](CCCCN)C(=O)N[C@@H](Cc1ccc(O)cc1)C(=O)N[C@@H](CC(C)C)C(=O)N[C@@H](CC(=O)O)C(=O)N[C@@H](CCC(=O)O)C(=O)N[C@@H](CCCNC(=N)N)C(=O)N[C@@H](C)C(=O)N[C@@H](C)C(=O)N[C@@H](CCC(N)=O)C(=O)N[C@@H](CC(=O)O)C(=O)N[C@@H](Cc1ccccc1)C(=O)N[C@H](C(=O)N[C@@H](CCC(N)=O)C(=O)N[C@@H](Cc1c[nH]c2ccccc12)C(=O)N[C@@H](CC(C)C)C(=O)N[C@@H](CC(C)C)C(=O)N[C@@H](CC(=O)O)C(=O)NCC(=O)NCC(=O)N1CCC[C@H]1C(=O)N[C@@H](CO)C(=O)N[C@@H](CO)C(=O)NCC(=O)N[C@@H](C)C(=O)N1CCC[C@H]1C(=O)N1CCC[C@H]1C(=O)N1CCC[C@H]1C(=O)N[C@@H](CO)C(N)=O)C(C)C)C(=O)O` [SEQ ID NO: 160] gave an EC50 (GIP receptor; Table 12, Example 19, read-out: EC50 (cAMP, nmole) GIPR) of 0.015 nM, an EC50 (GLP-1 receptor; Table 12, Example 19, read-out: EC50 (cAMP, nmole) GLPR) of 0.007 nM and an EC50 (glucagon receptor; Table 12, Example 19, read-out: EC50 (cAMP, nmole) GCGR) of 0.024 nM.
